Test results from patent US7960416B2, “Stable emulsion composition” (Takeda Pharmaceutical Company Limited, priority 2001, dated 2011).

tested on: NO production; test: NO production-inhibiting effect in RAW264.7 cells (nitrite ion, DAN fluorescence); format: cell-based, Mouse; details: Mus musculus; RAW264.7 cells stimulated with LPS 5 ng/ml and interferon gamma 1 U/ml; nitrite ion in culture supernatant; Compounds 1 and 3: minimum and maximum of 7 and 9 tests; read-out: IC50 (μM), NO production inhibition
Experimental: Mouse macrophage cell line RAW264.7 was used as an iNOS-inducible cell and a test compound was examined for its % inhibition of NO production. The test compound was dissolved at 10 mM in N,N-dimethylformamide and diluted with an RPMI-1640 medium at the concentration of 0.1 mM. The concentration was further adjusted using the medium so that a final concentration ranging from 10 μM to 10 nM could be obtained by a 10-fold serial dilution and the test compound was added to a culture medium. On the day before the experiment, the cell was adjusted at 5×10^5/ml in an RPMI-1640 medium supplemented with 10% inactivated fetal calf serum and inoculated to a 96-well microplate at 1×10^5 cells/0.2 ml per well. After incubating at 37° C. under an atmosphere of 5% CO2/95% air overnight, the test compound adjusted as described above was added and then LPS and interferon gamma were added at the final concentrations of 5 ng/ml and 1 U/ml, respectively. After further incubating overnight, culture supernatants were examined for the concentration of nitrite ion (stable metabolite of NO) which was used as an index for the NO production. The nitrite ion concentration was determined by adding 25 μl of 20 μg/ml of 2,3-diaminonaphthalene (DAN) to 50 μl of the culture supernatant, followed by incubating at room temperature for 10 minutes, followed by adding 25 μl of 0.5 N NaOH, followed by determining a fluorescence at 450 nm (excitation wavelength: 365 nm). An IC50 represents the concentration of the test compound which inhibits 50% of the NO production.

Q: For CCOC(=O)C1=CCCCC1S(=O)(=O)Nc1ccc([N+](=O)[O-])cc1 (stereo not drawn) [Compound 5, ethyl 6-[N-(4-nitrophenyl)sulfamoyl]-1-cyclohexene-1-carboxylate], which IC50 is on record?
A: The IC50 was 3.7 µM.

Q: Which IC50 does the source give for CCOC(=O)C1=CCCCC1S(=O)(=O)Nc1ccc(Cl)cc1 (stereo not drawn) [Compound 30, ethyl 6-[N-(4-chlorophenyl)sulfamoyl]-1-cyclohexene-1-carboxylate] here?
A: The IC50 was 0.54 µM.

Q: For CCOC(=O)C1=CCCCC1S(=O)(=O)Nc1ccccc1CC (stereo not drawn) [Compound 39, ethyl 6-[N-(2-ethylphenyl)sulfamoyl]-1-cyclohexene-1-carboxylate], which IC50 is on record?
A: Its IC50 is 0.32 µM.

Q: For CCOC(=O)C1=CCCCC1S(=O)(=O)Nc1cccc(Cl)c1 (stereo not drawn) [Compound 37, ethyl 6-[N-(3-chlorophenyl)sulfamoyl]-1-cyclohexene-1-carboxylate], which IC50 is on record?
A: Its IC50 is 0.13 µM.

same assay, conditions: RAW264.7 cells stimulated with LPS 5 ng/ml and interferon gamma 1 U/ml; nitrite ion in culture supernatant; Compounds 1 and 3: minimum and maximum of 7 and 9 tests; read-out: IC50 (μM), NO production inhibition

Q: For “ethyl 7-[N-(2-chloro-4-fluorophenyl)sulfamoyl]-1-dycloheptene-1-carboxylate [Compound 65]”, which IC50 is on record?
A: Its IC50 is 0.32 µM.

Q: For CCOC(=O)C1=CCCCC1S(=O)(=O)Nc1ccc(F)cc1F (stereo not drawn) [Compound 20, d-ethyl 6-[N-(2,4-difluorophenyl)sulfamoyl]-1-cyclohexene-1-carboxylate], which IC50 is on record?
A: Its IC50 is 0.005 µM.
